Assay results from patent publication US8829185B2 (Bayer HealthCare LLC, priority 2005, dated 2014).

Target: T1, FGFR1-GST (Homo sapiens, UniProt P11362)
T1 construct: GST; made in house
Test: FGFR-1 TR-FRET biochemical assay
Procedure: FGFR-1 TR-FRET Biochemical Assay
The FGFR-1 Assay was performed on half well 96-well opaque plates (Costar 3915) in a LANCE format. LANCE is a homogenous time resolved fluormetry based application available through Perkin Elmer. For this assay, 50 uL reactions were set up using: 0.6 uM ATP (Sigma), 25 nM poly GT-biotin (CIS BIO International), 2 nM Eu-labelled phospho-Tyr Ab (PY20 PerkinElmer), 10 nM Streptavidin-APC (Perkin Elmer), 5 nM FGFR1-GST (generated by DRT, Bayer Healthcare), 1% DMSO, 50 mM HEPES pH 7.5, 10 mM MgCl2, 0.1 mM EDTA, 0.015% Brij, 0.1 mg/ml BSA, 0.1% B-mercaptoethanol. All reactions were initiated with the addition of enzyme and were left to incubate for one hour at room temperature. Time-resolved fluorescence was then read on a Perkin Elmer VictorV Multilabel counter. The reading protocol uses an excitation wavelength at 340 nm and emission reads at both 615 and 665 nm. Signal was calculated as a ratio: (Fluorescence at 665 nm/Fluorescence at […])*10000 for each well. The background control used for this assay is the signal produced with all assay components excluding ATP. For IC50 generation, compounds were added prior to the enzyme initiation. A 50-fold stock plate was made with compounds serially diluted 1:5 in a 50% DMSO/50% dH2O solution. A 1 μL addition of the stock to the assay wells gave final compound concentrations ranging from 10 μM −0.128 nM in 1% DMSO. The data were expressed as percent inhibition: % inhibition=100−((Signal with inhibitor-background)/(Signal without inhibitor−background))*100.

T1 sequence (P11362 22-822): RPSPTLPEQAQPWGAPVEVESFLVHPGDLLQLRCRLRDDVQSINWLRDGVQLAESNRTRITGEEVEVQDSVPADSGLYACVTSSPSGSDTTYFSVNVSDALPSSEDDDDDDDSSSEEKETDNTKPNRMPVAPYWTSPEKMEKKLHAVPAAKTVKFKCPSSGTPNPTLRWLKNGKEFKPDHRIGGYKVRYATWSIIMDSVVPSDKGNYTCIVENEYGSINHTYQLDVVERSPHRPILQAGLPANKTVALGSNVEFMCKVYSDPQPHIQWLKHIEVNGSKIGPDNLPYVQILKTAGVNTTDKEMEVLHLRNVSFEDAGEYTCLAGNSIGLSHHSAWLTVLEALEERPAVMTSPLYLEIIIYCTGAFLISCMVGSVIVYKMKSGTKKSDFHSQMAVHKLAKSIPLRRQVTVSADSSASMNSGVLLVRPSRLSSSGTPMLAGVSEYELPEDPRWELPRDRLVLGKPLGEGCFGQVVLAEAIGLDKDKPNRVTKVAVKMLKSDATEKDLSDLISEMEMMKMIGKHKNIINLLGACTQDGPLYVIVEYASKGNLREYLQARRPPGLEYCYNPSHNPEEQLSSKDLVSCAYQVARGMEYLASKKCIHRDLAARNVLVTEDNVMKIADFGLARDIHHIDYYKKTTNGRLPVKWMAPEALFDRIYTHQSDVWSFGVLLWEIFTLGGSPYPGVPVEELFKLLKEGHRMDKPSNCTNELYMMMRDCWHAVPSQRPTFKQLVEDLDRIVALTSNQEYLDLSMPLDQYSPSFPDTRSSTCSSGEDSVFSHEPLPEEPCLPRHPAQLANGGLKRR

| Compound | IC50 (bounds given in nM) | IC50 (upper bound in μM) |
| --- | --- | --- |
| COCc1c(-c2ccc(NC(=O)Nc3cc(C(C)(C)C)ccn3)c(F)c2)c2c(N)ncnn2c1CN1CCOCC1 [Example 135, N-{4-[4-amino-6-(methoxymethyl)-7-(morpholin-4-ylmethyl)-pyrrolo[2,1-f][1,2,4]triazin-5-yl]-2-fluorophenyl}-N′-(4-tert-butylpyridin-2-yl)urea] | < 10 nM | – |
| CC(=O)c1c(-c2ccc(NC(=O)Nc3cc(C(F)(F)F)ccn3)c(F)c2)c2c(N)ncnn2c1CN1CCOCC1 [Example 60, N-4-[6-acetyl-4-amino-7-(morpholin-4-ylmethyl)pyrrolo[2,1-f][1,2,4]triazin-5-yl]-2-fluorophenyl-N′-[4-(trifluoromethyl)pyridin-2-yl]urea] | < 10 nM | – |
| CC(=O)c1c(-c2ccc(NC(=O)Nc3cc(C(F)(F)F)ccc3F)c(F)c2)c2c(N)ncnn2c1CN1CCOCC1 [Example 57, N-4-[6-acetyl-4-amino-7-(morpholin-4-ylmethyl)pyrrolo[2,1-f]-[1,2,4]triazin-5-yl]-2-fluorophenyl-N′-[2-fluoro-5-(trifluoromethyl)phenyl]urea] | 10 to 100 nM | – |
| CC(=O)c1c(-c2ccc(NC(=O)Nc3cc(C(F)(F)F)ccn3)cc2)c2c(N)ncnn2c1CN1CCOCC1 [Example 88, N-{4-[6-acetyl-4-amino-7-(morpholin-4-ylmethyl)pyrrolo[2,1-f][1,2,4]triazin-5-yl]phenyl}-N′-[4-(trifluoromethyl)-pyridin-2-yl]urea] | 10 to 100 nM | – |
| Nc1ncnn2c(CN3CCOCC3)c(-c3cnco3)c(-c3ccc(NC(=O)Nc4cc(C(F)(F)F)ccc4F)cc3)c12 [Example 26, N-4-[4-amino-7-(morpholin-4-ylmethyl)-6-(1,3-oxazol-5-yl)pyrrolo[2,1-f][1,2,4]triazin-5-yl]phenyl-N′-[2-fluoro-5-(trifluoromethyl)phenyl]urea] | < 10 nM | – |
| COCc1c(-c2ccc(NC(=O)Nc3cc(C(F)(F)F)ccn3)cc2)c2c(N)ncnn2c1CN1CCC(F)(F)CC1 [Example 40, N-{4-[4-amino-7-[(4,4-difluoropiperidin-1-yl)methyl]-6-(methoxymethyl)pyrrolo[2,1-f][1,2,4]triazin-5-yl]phenyl}-N′-[4-(trifluoromethyl)pyridin-2-yl]urea] | > 100 nM | < 1000 nM |
| COCCN(C)Cc1c(-c2ccc(NC(=O)Nc3cc(C(F)(F)F)ccc3F)cc2)c2c(N)ncnn2c1CN1CCOCC1 [Example 110, N-4-[4-amino-6-[(2-methoxyethyl)(methyl)-amino]methyl-7-(morpholin-4-ylmethyl)pyrrolo[2,1-f][1,2,4]triazin-5-yl]phenyl-N′-[2-fluoro-5-(trifluoromethyl)phenyl]urea] | > 100 nM | < 1000 nM |
| N#CCc1c(-c2ccc(NC(=O)Nc3cc(C(F)(F)F)ccn3)cc2)c2c(N)ncnn2c1CN1CCNC(=O)C1 [Example 66, N-(4-{4-amino-6-(cyanomethyl)-7-[(3-oxopiperazin-1-yl)methyl]-pyrrolo[2,1-f][1,2,4]triazin-5-yl}phenyl)-N′-[4-(trifluoromethyl)pyridin-2-yl]urea] | < 10 nM | – |
| Nc1ncnn2c(CN3CCOCC3)c(-c3cnco3)c(-c3ccc(NC(=O)Nc4cc(F)cc(C(F)(F)F)c4)cc3)c12 [Example 29, N-4-[4-amino-7-(morpholin-4-ylmethyl)-6-(1,3-oxazol-5-yl)pyrrolo[2,1-f][1,2,4]triazin-5-yl]phenyl-N′-[3-fluoro-5-(trifluoromethyl)phenyl]urea] | < 10 nM | – |
| COCc1c(-c2ccc(NC(=O)Nc3cc(C(F)(F)F)ccc3F)c(F)c2)c2c(N)ncnn2c1CN1CCOCC1 [Example 45, N-{4-[4-amino-6-(methoxymethyl)-7-(morpholin-4-ylmethyl)pyrrolo[2,1-f][1,2,4]triazin-5-yl]-2-fluorophenyl}-N′-[2-fluoro-5-(trifluoromethyl)phenyl]urea] | < 10 nM | – |
| Cc1c(-c2cc(F)c(NC(=O)Nc3cc(C(F)(F)F)ccc3F)cc2F)c2c(N)ncnn2c1CN1CCOCC1 [Example 123, N-{4-[4-amino-6-methyl-7-(morpholin-4-ylmethyl)pyrrolo[2,1-f][1,2,4]triazin-5-yl]-2,5-difluorophenyl}-N′-[2-fluoro-5-(trifluoromethyl)-phenyl]urea] | 10 to 100 nM | – |
| Nc1ncnn2c(CN3CCOCC3)c(Cl)c(-c3ccc(NC(=O)Nc4cc(C(F)(F)F)ccc4F)cc3)c12 [Example 154, N-{4-[4-amino-6-chloro-7-(morpholin-4-ylmethyl)pyrrolo[2,1-f][1,2,4]triazin-5-yl]phenyl}-N′-[2-fluoro-5-(trifluoromethyl)phenyl]urea] | < 10 nM | – |
| CON(C)C(=O)c1c(-c2ccc(NC(=O)Nc3cc(C(F)(F)F)ccn3)cc2)c2c(N)ncnn2c1CN1CCOCC1 [Example 97, 4-amino-N-methoxy-N-methyl-7-(morpholin-4-ylmethyl)-5-{4-[({[4-(trifluoromethyl)pyridin-2-yl]amino}carbonyl)-amino]phenyl}pyrrolo[2,1-f][1,2,4]triazine-6-carboxamide] | > 100 nM | < 1000 nM |
| CC(=O)N1CCN(Cc2c(-c3cnco3)c(-c3ccc(NC(=O)Nc4cc(C(F)(F)F)ccc4F)cc3)c3c(N)ncnn23)CC1 [Example 32, N-4-[7-[(4-acetylpiperazin-1-yl)methyl]-4-amino-6-(1,3-oxazol-5-yl)pyrrolo[2,1-f][1,2,4]triazin-5-yl]phenyl-N′-[2-fluoro-5-(trifluoromethyl)phenyl]urea] | < 10 nM | – |
| COCc1c(-c2ccc(NC(=O)Nc3cc(C(F)(F)F)ccc3F)cc2)c2c(N)ncnn2c1CN1CCNC(=O)C1 [Example 19, N-(4-{4-amino-6-(methoxymethyl)-7-[(3-oxopiperazin-1-yl)methyl]pyrrolo[2,1-f][1,2,4]triazin-5-yl}phenyl)-N′-[2-fluoro-5-(trifluoromethyl)phenyl]urea] | < 10 nM | – |
| COCc1c(-c2ccc(NC(=O)Nc3cc(C(F)(F)F)ccc3F)cc2)c2c(N)ncnn2c1CNC1CC1 [Example 16, N-{4-[4-amino-7-[(cyclopropylamino)methyl]-6-(methoxymethyl)pyrrolo[2,1-f][1,2,4]triazin-5-yl]phenyl}-N′-[2-fluoro-5-(trifluoromethyl)phenyl]urea] | 10 to 100 nM | – |
| CC(C)(O)c1c(-c2ccc(NC(=O)Nc3cc(C(F)(F)F)ccn3)cc2)c2c(N)ncnn2c1CN1CCOCC1 [Example 86] | > 100 nM | < 1000 nM |
| COCc1c(-c2ccc(NC(=O)Nc3cc(C(F)(F)F)ccn3)cc2)c2c(N)ncnn2c1CN1CCN(C(C)=O)CC1 [Example 37, N-4-[7-[(4-acetylpiperazin-1-yl)methyl]-4-amino-6-(methoxy-methyl)pyrrolo[2,1-f][1,2,4]triazin-5-yl]phenyl-N′-[4-(trifluoromethyl)pyridin-2-yl]urea] | 10 to 100 nM | – |
| COCc1c(-c2ccc(NC(=O)Nc3cc(C(F)(F)F)ccc3F)c(F)c2)c2c(N)ncnn2c1C1CCN(C(=O)N(C)C)CC1 [Example 150, 4-{4-amino-5-[3-fluoro-4-({[2-fluoro-5-(trifluoromethyl)-phenyl]carbamoyl}amino)phenyl]-6-(methoxymethyl)-pyrrolo[2,1f][1,2,4]-triazin-7-yl}-N,N-dimethylpiperidine-1-carboxamide] | > 100 nM | < 1000 nM |
| N#CCc1c(-c2ccc(NC(=O)Nc3cc(C(F)(F)F)ccc3F)cc2)c2c(N)ncnn2c1CN1CCNC(=O)C1 [Example 70, N-(4-{4-amino-6-(cyanomethyl)-7-[(3-oxopiperazin-1-yl)methyl]pyrrolo[2,1-f][1,2,4]triazin-5-yl}phenyl)-N′-[2-fluoro-5-(trifluoromethyl)phenyl]urea] | < 10 nM | – |
| N#CCc1c(-c2ccc(NC(=O)Nc3cc(C(F)(F)F)ccc3F)cc2)c2c(N)ncnn2c1CN1CCOCC1 [Example 68, N-{4-[4-amino-6-(cyanomethyl)-7-(morpholin-4-ylmethyl)-pyrrolo[2,1-f][1,2,4]triazin-5-yl]phenyl}-N′-[2-fluoro-5-(trifluoromethyl)-phenyl]urea] | < 10 nM | – |
| CCOC(=O)c1c(-c2ccc(NC(=O)Nc3cc(C(F)(F)F)ccn3)cc2)c2c(N)ncnn2c1-c1cccc(F)c1 [Example 1, Ethyl 4-amino-7-(3-fluorophenyl)-5-{4-[({[4-(trifluoromethyl)pyridin-2-yl]amino}carbonyl)amino]phenyl}-pyrrolo[2,1-f][1,2,4]triazine-6-carboxylate] | 10 to 100 nM | – |
| COCc1c(-c2ccc(NC(=O)Nc3cc(C)ccc3F)c(F)c2)c2c(N)ncnn2c1CN1CCCOCC1 [Example 140, N-{4-[4-amino-6-(methoxymethyl)-7-(1,4-oxazepan-4-ylmethyl)-pyrrolo[2,1-f][1,2,4]triazin-5-yl]-2-fluorophenyl}-N′-(2-fluoro-5-methylphenyl)urea] | 10 to 100 nM | – |
| CCc1c(-c2ccc(NC(=O)Nc3cc(C(F)(F)F)ccn3)cc2)c2c(N)ncnn2c1CN1CCOCC1 [Example 148, N-{4-[4-amino-6-ethyl-7-(morpholin-4-ylmethyl)pyrrolo[2,1-f][1,2,4]triazin-5-yl]phenyl}-N′-[4-(trifluoromethyl)pyridin-2-yl]urea] | 10 to 100 nM | – |
